Data from ChEMBL document CHEMBL4414619, “Protein Tyrosine Phosphatase 1B Inhibitory Iridoids from Psydrax subcordata” (J Nat Prod, 2019).

What was measured:
[1] = target: T1, Tyrosine-protein phosphatase non-receptor type 1 (Homo sapiens, UniProt P18031); assay: Inhibition of N-terminal GST tagged recombinant human PTP1B catalytic domain (1 to 321 residues) expressed in Escherichia coli using pNPP as substrate preincubated for 10 mins followed by substrate addition and measured every 5 mins for 30 mins
T1 sequence (P18031 whole entry): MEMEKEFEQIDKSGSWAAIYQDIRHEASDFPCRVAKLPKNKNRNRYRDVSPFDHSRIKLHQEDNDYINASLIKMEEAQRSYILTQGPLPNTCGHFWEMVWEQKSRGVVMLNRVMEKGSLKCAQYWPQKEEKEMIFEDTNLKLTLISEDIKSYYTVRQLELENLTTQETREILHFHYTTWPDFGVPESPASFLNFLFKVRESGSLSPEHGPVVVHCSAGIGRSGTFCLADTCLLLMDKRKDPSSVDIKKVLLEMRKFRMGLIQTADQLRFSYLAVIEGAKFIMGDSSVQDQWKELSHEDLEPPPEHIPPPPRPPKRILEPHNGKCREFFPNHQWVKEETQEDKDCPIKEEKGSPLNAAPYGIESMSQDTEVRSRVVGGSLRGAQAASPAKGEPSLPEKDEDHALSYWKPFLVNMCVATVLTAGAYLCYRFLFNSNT

[2] = target: T2, Tyrosine-protein phosphatase non-receptor type 1 (Homo sapiens) (UniProt P18031); assay: (§1) Ratio of kinetic constant Kik to Kiv at N-terminal GST-tagged recombinant human PTP1B catalytic domain (1 to 321 residues) expressed in Escherichia coli using pNPP as substrate preincubated for 10 mins followed by incubation with substrate for 30 mins and measured every 5 mins for 30 mins by Lineweaver-burk plot analysis
T2 sequence (whole entry): T1 sequence (P18031 whole entry)

[3] = target: T1, Tyrosine-protein phosphatase non-receptor type 1; assay: as §1, with “Competitive inhibition” for “Ratio”, “of” for “of kinetic constant Kik to Kiv at”, “coli assessed as inhibitory constant” for “coli”, “plot based Dixon plot” for “plot”

Compound	IC50 [1] [µM]	Ratio [2]	Ki [3] [µM]
CC1=C2COC(=O)[C@H](CO)[C@H]2[C@H](O)C1	9.8	6.86 to 37.6	4.13
COC(=O)C1=CO[C@@]2(C)C[C@@H](O)[C@H]1[C@@H]2CO	22.2	–	–
COC(=O)[C@H](CO)[C@@H]1C(CO)=C(C)C[C@H]1O	> 80	–	–
CC1=C(CO)[C@@H](CCO)[C@H](O)C1	> 80	–	–
CC1=C2C(=O)OCC[C@H]2[C@H](O)C1	> 80	–	–
CC1=C[C@@H](O)[C@@H]2[C@@H](CO)C(=O)O[C@]12CO	43.6	–	–
COC(=O)[C@H]1COC(=O)C2=C(C)C[C@@H](O)[C@@H]21	> 80	–	–
COC(=O)C1=C(C)C[C@@H](O)[C@@H]1CCO	> 80	–	–
COC(=O)[C@@H](CO)[C@@H]1C(CO)=C(C)C[C@H]1O	> 80	–	–
CC1=C2COC(=O)[C@@H](CO)[C@H]2[C@H](O)C1	8.9	6.86 to 37.6	2.57
COC(=O)C1=C(C)C[C@@H](O)[C@@H]1[C@H](CO)C(=O)OC	> 80	–	–
